According to US12022831B2, “Synergistic weed control from applications of aminopyralid and clopyralid” (Dow AgroSciences LLC, priority 2012, dated 2024):
Where a name gives a salt, the structure may show the parent alone.

Tested on: honey mesquite (Prosopis glandulosa), weed bayer PRCJG
Assay: Field trial, post-emergence foliar application, synergistic weed control (canopy control and mortality ratings, Colby's equation)
Type: in vivo
Protocol: In some embodiments, the damage or injury to the undesired vegetation caused by the compositions and methods disclosed herein is evaluated using a scale from 0% to 100%, when compared with the untreated control vegetation, wherein 0% indicates no damage to the undesired vegetation and 100% indicates complete destruction of the undesired vegetation.
X=effect in percent using (a) aminopyralid or an agriculturally acceptable salt or ester thereof at an application rate a;
Y=effect in percent using (b) clopyralid or an agriculturally acceptable salt or ester thereof at an application rate b;
E=expected effect (in %) of (a)+(b) at application rates a and b.
In Colby's equation, the value E corresponds to the effect (plant damage or injury) that is to be expected if the activity of the individual compounds is additive. If the observed effect is higher than the value E calculated according to the Colby equation, then a synergistic effect is present according to the Colby equation.
Field trials were conducted with applications made to established grassland with naturally occurring weed populations. The target plants were treated with postemergence foliar applications when they reached two to five feet tall. All treatments were applied using a nonrandomized trial design, with three replications per treatment.
[…] Spray solutions were prepared using an appropriate amount of dilution to form a 2 L aqueous spray solution with active ingredients in single and two way combinations. […] The treated plants were honey mesquite (Prosopis glandulosa). The treated plots and control plots were rated blind at various intervals after application. Ratings were based on a scale of 0-100%, wherein 0% indicates no damage to the canopy of the undesired vegetation and 100% indicates complete destruction of the canopy of undesired vegetation. Dead and live plants were counted and the mortality was calculated as a % of the total number of undesired plants per plot.
Colby's equation was used to determine the herbicidal effects expected from the mixtures, as described above. […] The herbicide tank mix combinations tested, application rates and ratios employed, plant species tested, and results are given below.

SMILES | Mean % weed mortality; Evaluation: % Canopy Control (Aminopyralid TIPA Salt alone 280 gae/ha, 81 days after treatment) | Mean % weed mortality; Evaluation: % Canopy Control (Aminopyralid TIPA Salt alone 280 gae/ha, 82 days after treatment) | Mean % weed mortality; Evaluation: % Mortality (Aminopyralid TIPA Salt alone 280 gae/ha, 385 days after treatment) | Mean % weed mortality; Evaluation: % Mortality (Aminopyralid TIPA Salt alone 280 gae/ha, 386 days after treatment) | Mean % weed mortality; Evaluation: % Canopy Control (Clopyralid MEA Salt alone 560 gae/ha, 82 days after treatment) | Mean % weed mortality; Evaluation: % Mortality (Clopyralid MEA Salt alone 560 gae/ha, 385 days after treatment) | Mean % weed mortality; Evaluation: % Mortality (Clopyralid MEA Salt alone 560 gae/ha, 386 days after treatment)
Nc1cc(Cl)nc(C(=O)O)c1Cl [Aminopyralid TIPA Salt, 4-amino-3,6-dichloro-2-pyridinecarboxylic acid] | 22.0% | 10.0% | 0% | 14% |  |  | 
O=C(O)c1nc(Cl)ccc1Cl [Clopyralid MEA Salt, 3,6-dichloro-2-pyridinecarboxylic acid] |  |  |  |  | 25.0% | 25% | 7%
